# Earlier results in US20030104065A1, “Method of preparing solid dispersions” (priority 2002, published 2003).
# Conditions: local anesthetic effect, versus lidocaine
smiles,measurement,value
CCCN1CCCC[C@H]1C(=O)Nc1c(C)cccc1C [ropivacaine],therapeutic potency relative to lidocaine,about 50 times
